We go through 22 compounds from ChEMBL document CHEMBL1149596, “QSAR study of selective ligands for the thyroid hormone receptor beta” (Bioorg Med Chem, 2007).

Values joined by “and” are separate entries in the source; they are usually repeats but may differ in a detail not shown here. Equal values may be shown once.

The assay concerns the target T1, Thyroid hormone receptor beta (Homo sapiens, UniProt P10828).
T1 sequence (P10828 whole entry): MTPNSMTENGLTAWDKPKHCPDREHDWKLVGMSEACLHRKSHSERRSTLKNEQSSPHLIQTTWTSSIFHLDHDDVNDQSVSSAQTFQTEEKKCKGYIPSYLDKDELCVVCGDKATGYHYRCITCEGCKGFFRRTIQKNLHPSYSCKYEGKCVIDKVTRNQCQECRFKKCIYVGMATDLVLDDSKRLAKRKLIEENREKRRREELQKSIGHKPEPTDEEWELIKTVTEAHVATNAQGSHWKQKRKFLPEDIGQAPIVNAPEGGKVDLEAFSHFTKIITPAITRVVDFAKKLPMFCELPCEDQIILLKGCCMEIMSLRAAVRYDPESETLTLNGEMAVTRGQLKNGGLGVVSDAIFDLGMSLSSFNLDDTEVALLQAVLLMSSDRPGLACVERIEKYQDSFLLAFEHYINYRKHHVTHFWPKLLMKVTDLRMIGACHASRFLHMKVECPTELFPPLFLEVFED
`CC1(C)C2CCC(NC(=O)c3cc(Oc4c(Cl)cc(-n5ncc(=O)[nH]c5=O)cc4Cl)ccc3O)C1C2` (stereo in doubt; 43) gave an IC50 of 0.112 nM. Consider `O=C(NC1CCC1)c1cc(Oc2c(Cl)cc(-n3ncc(=O)[nH]c3=O)cc2Cl)ccc1O`, for which the half-inhibitory concentration (IC50) is 1.78 nM.

On to `O=C(c1cc(Oc2c(Cl)cc(-n3ncc(=O)[nH]c3=O)cc2Cl)ccc1O)N1CCCCC1`, for which the 50% inhibitory concentration (IC50) was 1.74 nM and 5.25 nM. For the compound `CC1(C)C2CCC(NC(=O)c3cc(Oc4c(Cl)cc(-n5ncc(=O)[nH]c5=O)cc4Cl)ccc3O)C1C2` (stereo in doubt; 42), the IC50 was 0.166 nM. As to `O=c1cnn(-c2cc(Cl)c(Oc3ccc(O)c(S(=O)(=O)N4CCc5ccccc54)c3)c(Cl)c2)c(=O)[nH]1`, the IC50 is 0.646 nM. Regarding `O=c1cnn(-c2cc(Cl)c(Oc3ccc(O)c(S(=O)(=O)N4CCCCC4)c3)c(Cl)c2)c(=O)[nH]1`, it took 0.0562 nM to reach half-maximal inhibition (IC50).

The compound `CC1(C)C2CCC1(C)[C@H](NC(=O)c1cc(Oc3c(Cl)cc(-n4ncc(=O)[nH]c4=O)cc3Cl)ccc1O)C2` (some centres not stated) showed an IC50 of 1.02 nM. This IC50 is about 18-fold higher than that of the compound before. Consider `O=C(O)Cc1cc(Br)c(Oc2ccc(O)c(C(=O)NCC(c3ccccc3)c3ccccc3)c2)c(Br)c1`, for which it took 37.2 nM to reach half-maximal inhibition (IC50). This IC50 is about 36-fold higher than that of the compound before. In the case of `O=c1cnn(-c2cc(Cl)c(Oc3ccc(O)c(S(=O)(=O)Nc4ccccc4)c3)c(Cl)c2)c(=O)[nH]1`, the IC50 is 0.282 nM.

`O=c1cnn(-c2cc(Cl)c(Oc3ccc(O)c(S(=O)(=O)NC4CCCCC4)c3)c(Cl)c2)c(=O)[nH]1` gave a 50% inhibitory concentration (IC50) of 1.29 nM. For the compound `Cc1cc(-n2ncc(=O)[nH]c2=O)cc(C)c1Oc1ccc(O)c(S(=O)(=O)N2CCCCC2)c1`, the IC50 was 1.29 nM.

`O=C(O)Cc1cc(Br)c(Oc2ccc(O)c(C(=O)NC(=O)c3ccccc3)c2)c(Br)c1` gave a concentration for half-maximal inhibition (IC50) of 4.17 nM. Against the preceding compound, the IC50 is about 3.2-fold higher. With `Cc1cc(-n2ncc(=O)[nH]c2=O)cc(Cl)c1Oc1ccc(O)c(S(=O)(=O)N2CCCCC2)c1`, the IC50 was 0.363 nM. The compound `O=C(NC1CCCCC1)c1cc(Oc2c(Cl)cc(-n3ncc(=O)[nH]c3=O)cc2Cl)ccc1O` showed a half-maximal inhibitory concentration (IC50) of 0.195 nM. Compared with the last compound, the IC50 is about 1.9-fold lower. The compound `COc1ccccc1CCNC(=O)c1cc(Oc2c(Br)cc(CC(=O)O)cc2Br)ccc1O` showed a half-maximal inhibitory concentration (IC50) of 0.468 nM. On to `Cc1cc(-n2ncc(=O)[nH]c2=O)cc(Cl)c1Oc1ccc(O)c(S(=O)(=O)N2CCOCC2)c1`, for which the IC50 was 75.9 nM. Then `O=c1cnn(-c2cc(Cl)c(Oc3ccc(O)c(S(=O)(=O)N4C5CCC4CC4(C5)OCCO4)c3)c(Cl)c2)c(=O)[nH]1`, with 0.871 nM.

`O=c1cnn(-c2cc(Cl)c(Oc3ccc(O)c(S(=O)(=O)N4C5CCC4CC4(CCCO4)C5)c3)c(Cl)c2)c(=O)[nH]1` (configuration not stated) showed a 50% inhibitory concentration (IC50) of 0.776 nM.

Take `O=C(c1cc(Oc2c(Cl)cc(-n3ncc(=O)[nH]c3=O)cc2Cl)ccc1O)N1CCOCC1`: the IC50 is 2 nM. Compared with the last compound, the IC50 is about 2.6-fold higher. Regarding `COc1cccc(CCNC(=O)c2cc(Oc3c(Br)cc(CC(=O)O)cc3Br)ccc2O)c1`, the midpoint of inhibition, the IC50, lay at 8.51 nM. As to `COc1ccc(CCNC(=O)c2cc(Oc3c(Br)cc(CC(=O)O)cc3Br)ccc2O)cc1`, the half-inhibitory concentration (IC50) is 4.79 nM.

Take `O=c1cnn(-c2cc(Cl)c(Oc3ccc(O)c(S(=O)(=O)NC4CCC4)c3)c(Cl)c2)c(=O)[nH]1`: the IC50 was 1.12 nM.
